In US20160184246A1, “TRANSDERMAL DRUG DELIVERY SYSTEMS FOR AGOMELATINE” (Noven Pharmaceuticals, Inc., priority 2014, published 2016):
Converted amounts (≈) assume the structure as drawn.

Key:
[1] = Solubility of agomelatine in water or aqueous isopropanol (IPA); format: physicochemical; settings: 32° C.
Experimental: The solubility of agomelatine in water or different concentrations of aqueous isopropanol (IPA) was assessed. As shown in the table below, the solubility of agomelatine in aqueous IPA solutions increased with increasing IPA content. Agomelatine was formulated at its saturation concentration in different concentrations of aqueous IPA and drug flux through human cadaver skin was assessed using a modified Franz-cell apparatus, using 0.1 mL solution per cm^2.

[2] = test system: serum hepatic transaminases; settings: in vivo; cited from earlier work
[3] = cited from earlier work
[4] = cited from earlier work; remark: listed apart in the source
[5] = Pharmacokinetics of oral agomelatine (background); format: in vivo, human; settings: current commercial oral dosage, humans
Experimental: Oral dosage forms (tablets) of agomelatine have been approved in Europe under the trade names Valdoxan, Melitor, and Thymanax. Each tablet contains 25 mg agomelatine, prescribed at an initial dose of 1 tablet taken at bedtime, which dose may be increased to 2 tablets (50 mg) as needed. Oral agomelatine is well absorbed (although greater in women than in men), however, oral bioavailability is only 5% with large variations. The limited bioavailability is believed to be due to heavy first-pass liver metabolism, predominantly by cytochrome CYP1A2 of the P450 isoenzyme system, which results in conjugated metabolites of hydroxylated and demethylated agomelatine. […] The agomelatine oral tablet product produces a human plasma concentration-time pharmacokinetic (PK) profile with a Cmax of about 6 ng/ml, declining thereafter thereafter with a t1/2 of less than 2 hours.

COc1ccc2cccc(CCNC(C)=O)c2c1 [Agomelatine, N-[2-(7-methoxynaphthalen-1-yl)ethyl]acetamide]
solubility ([1]; 0 (water)): 0.4 mg/mL (≈ 1.64 mM) | solubility ([1]; 25 v/v % aqueous isopropanol, aqueous with cosolvent or surfactant or cyclodextrin, 25 v/v % aqueous IPA): 3 mg/mL (≈ 12.3 mM) | solubility ([1]; 50 v/v % aqueous isopropanol, aqueous with cosolvent or surfactant or cyclodextrin, 50 v/v % aqueous IPA): 51 mg/mL (≈ 210 mM) | solubility ([1]; 75 v/v % aqueous isopropanol, aqueous with cosolvent or surfactant or cyclodextrin, 75 v/v % aqueous IPA): 139 mg/mL (≈ 571 mM) | solubility ([1]; 90 v/v % aqueous isopropanol, aqueous with cosolvent or surfactant or cyclodextrin, 90 v/v % aqueous IPA): > 150 mg/mL | increases in serum hepatic transaminases [2]: as high as three times the upper limit of normal range | individuals with increases in serum hepatic transaminases [2]: up to 1% | solubility in water [3]: 0.2 mg/mL (≈ 0.822 mM) | bound to plasma protein ([4]; in vivo): 95% | plasma half-life (t1/2) ([4]; in vivo): 1 to 2 h | oral bioavailability ([4]; oral): 5% | systemic delivery of agomelatine after hepatic metabolism [5]: 1.25 to 2.5 mg
